Results on two molecules are retold here after US4141988A, “2,9-Dioxatricyclo[4,3,1,0^3,7 ]decane derivatives, processes for their preparation and pharmaceutical compositions thereof” (Kali-Chemie Pharma GmbH, priority 1977, dated 1979).

In data set [1] the test system is rhesus monkey. Kind of data set: self-administration test (addiction) in the rhesus monkey. It is filed as in vivo. Conditions: contrary to morphine. The procedure:
test substance No. 32-527 < 5,6 mg/kg and morphine 3,6 mg/kg.

Another data set is described as follows: acute toxicity. In kind it is in vivo. Conditions: compared with propoxyphene or profadol.
The test system of the next data set is bradykinin induced pain. Kind of data set: bradykinin induced pain test in rats (s.c.). In kind it is in vivo, rat. On the procedure: For example, the MED of both, the test substance 32-527 and morphine, is 0,56 mg/kg in the so-called step-irritation test in the rhesus monkey upon s.c. administration. Upon s.c. administration, the ED50 of the two substances for inhibiting the bradykinin induced pain in rats are as follows: […]

For data set [2], the system named is mice, rats and rhesus monkeys. Kind of data set: analgesic activity in mice, rats and rhesus monkeys. In kind it is in vivo.
The subject of data set [3] is rhesus monkey. Put plainly: step-irritation test in the rhesus monkey. It is filed as in vivo.
Data set [4] is described as follows: inhibition of intestinal motility in mice. As to conditions: mouse, in vivo, po, read-out: intestinal motility inhibiting ED50.

Where only a bound is given, the exact number is not on record here.

On to `COC1OC2OC3(C)C(NCCc4ccccc4Cl)CC(C2C)C13.Cl` (stereo not drawn) [test substance No. 32-527, 4 α-(o-chlorophenethylamino)-3,10-dimethyl-8-methoxy-2,9-dioxatricyclo[4,3,1,0^3,7]decane hydrochloride], for which the “addiction syndroms in the self-administration test” value in the data set on rhesus monkey [1] is “practically no addiction syndroms are observed”. The acute toxicity entry in the data set “acute toxicity” is “similarly low toxicity as that of propoxyphene or profadol”. The “ED50 for inhibiting the bradykinin induced pain” value in the data set with bradykinin induced pain was < 5,6 mg/kg. Also, the “analgesic activity compared with morphine” value in data set [2] (enteral and parenteral) is “of about the same order as that of morphine”. For the same molecule, the analgesic activity result in data set [2] (enteral and parenteral administration) is listed as “exhibits analgesic activities”. Further, in the data set with rhesus monkey [3] (step-irritation test, rhesus monkey, s.c.), the MED is given as 0,56 mg/kg.

`CN1CC[C@]23c4c5ccc(O)c4O[C@H]2[C@@H](O)C=C[C@H]3[C@H]1C5` [morphine, reference compound]: the “ED50 for inhibiting the bradykinin induced pain” value in the data set with bradykinin induced pain is listed as 3,6 mg/kg. Moreover, in data set [4], the ED50 is 39 mg/kg. For the same molecule, the minimal effective dose with rhesus monkey [3] (Macaca mulatta, sc, read-out: MED) was determined as 0.56 mg/kg.
